# Results reported in patent publication US20070128217A1 (priority 2003, published 2007).
# Tests used:
# [1] = system: antibodies in sera from SARS patients (sera 1a, 1b, 2, 6, 37, 62, London, SARS-yellow, SARS-green); type: binding, human; design: Binding of serum 6 to linear peptides of protein X1 of SARS-CoV Urbani / Binding of serum 37 to linear peptides of protein X1 of SARS-CoV Urbani / Binding of serum 6 to looped/cyclic peptide (PEPSCAN-ELISA) / Binding of serum 37 to looped/cyclic peptide (PEPSCAN-ELISA) / Binding of serum 37 to looped/cyclic peptides of protein X1 of SARS-CoV Urbani / Binding of serum 6 to linear peptides of protein X2 / Binding of serum 37 to linear peptides of protein X2 / Binding of serum 37 to looped/cyclic peptides of protein X2 of SARS-CoV Urbani / Binding of serum 6 to linear peptides of protein M of SARS-CoV Urbani / Binding of serum 37 to linear peptides of protein M of SARS-CoV Urbani / Binding of serum 6 to looped/cyclic peptides of protein M of SARS-CoV Urbani / Binding of serum 37 to looped/cyclic peptides of protein M of SARS-CoV Urbani / Binding of serum 6 to linear peptides of protein X3 of SARS-CoV Urbani / Binding of serum 37 to linear peptides of protein X3 of SARS-CoV Urbani / Binding of serum 37 to looped/cyclic peptides of protein X3 of SARS-CoV Urbani / Binding of serum 6 to linear peptides of protein X4 of SARS-CoV Urbani / Binding of serum 37 to linear peptides of protein X4 of SARS-CoV Urbani / Binding of serum 37 to looped/cyclic peptides of protein X4 of SARS-CoV Urbani / Binding of serum 6 to linear peptides of protein X5 of SARS-CoV Urbani / Binding of serum 37 to linear peptides of protein X5 of SARS-CoV Urbani / Binding of serum 37 to looped/cyclic peptides of protein X5 of SARS-CoV Urbani / Binding of serum 6 to linear peptides of protein N of SARS-CoV Urbani / Binding of serum 37 to linear peptides of protein N of SARS-CoV Urbani / Binding of serum 6 to linear peptide (PEPSCAN-ELISA) / Binding of serum 1a to looped/cyclic peptides of protein N of SARS-CoV Urbani / Binding of serum 1b to looped/cyclic peptides of protein N of SARS-CoV Urbani / Binding of serum 2 to looped/cyclic peptides of protein N of SARS-CoV Urbani / Binding of serum 6 to looped/cyclic peptides of protein N of SARS-CoV Urbani / Binding of serum 37 to looped/cyclic peptides of protein N of SARS-CoV Urbani / Binding of serum 62 to looped/cyclic peptides of protein N of SARS-CoV Urbani / Binding of serum London to looped/cyclic peptides of protein N of SARS-CoV Urbani / Binding of serum SARS-green to looped/cyclic peptides of protein N of SARS-CoV Urbani: unit not given here
# [2] = system: rabbit serum obtained by immunizing a rabbit with the SARS-CoV strain Frankfurt 1; type: binding; design: Binding of a rabbit serum to linear peptides / Binding of a rabbit serum to looped peptides / Rabbit serum linear peptides / Rabbit serum looped peptides / Binding of a rabbit serum to linear peptides of protein N of SARS-CoV Urbani (Rabbit serum linear peptides) / Binding of a rabbit serum to looped/cyclic peptides of protein N of SARS-CoV Urbani (Rabbit serum looped peptides): unit not given here
# [3] = system: control sera (pooled serum of ten healthy LUMC hospital workers; commercial negative donor pooled serum from the Dutch bloodbank); type: binding, human; design: Binding of Control serum LUMC to linear peptides / Binding of Control serum Blood-bank to linear peptides / Binding of Control serum LUMC to looped peptides / Binding of Control Serum Blood-Bank to Looped peptides / Binding of Control serum LUMC to linear peptides of the protein M of SARS-CoV Urbani / Binding of Control serum Blood-bank to linear peptides of the protein M of SARS-CoV Urbani / Binding of Control serum LUMC to looped peptides of the protein M of SARS-CoV Urbani / Binding of Control Serum Blood-Bank to Looped peptides of the protein M of SARS-CoV Urbani: unit not given here
sequence,measurement,setting,value
LKVTAFQHQNSKKTT,Binding of serum 1a to linear peptides of protein X2,[1],0.5
same,Binding of serum 1a to looped/cyclic peptides of protein X2 of SARS-CoV Urbani,[1],0.3
same,Binding of serum 1b to linear peptides of protein X2,[1],0.4
same,Binding of serum 1b to looped/cyclic peptides of protein X2 of SARS-CoV Urbani,[1],0.2
same,Binding of serum 2 to linear peptides of protein X2,[1],0.3
same,Binding of serum 2 to looped/cyclic peptides of protein X2 of SARS-CoV Urbani,[1],0.1
same,Binding of serum 6 to linear peptides of protein X2,[1],0.3
same,Binding of serum 6 to looped/cyclic peptides of protein X2 of SARS-CoV Urbani,[1],0.1
same,Binding of serum 37 to linear peptides of protein X2,[1],0.5
same,Binding of serum 37 to looped/cyclic peptides of protein X2 of SARS-CoV Urbani,[1],0.2
same,Binding of serum 62 to linear peptides of protein X2,[1],0.3
same,Binding of serum 62 to looped/cyclic peptides of protein X2 of SARS-CoV Urbani,[1],0.4
same,Binding of serum London to linear peptides of protein X2,[1],0.2
same,Binding of serum London to looped/cyclic peptides of protein X2 of SARS-CoV Urbani,[1],0.1
same,Binding of serum SARS-green to linear peptides of protein X2,[1],0.2
same,Binding of serum SARS-green to looped/cyclic peptides of protein X2 of SARS-CoV Urbani,[1],0.1
same,Binding of serum SARS-yellow to linear peptides of protein X2,[1],0.7
same,Binding of serum SARS-yellow to looped/cyclic peptides of protein X2 of SARS-CoV Urbani,[1],0.2
same,Binding of a rabbit serum to linear peptides,[2],0.6
same,Binding of a rabbit serum to looped peptides,[2],0.3
same,Binding of Control Serum Blood-Bank to Looped peptides,[3],0.3
same,Binding of Control serum Blood-bank to linear peptides,[3],0.4
same,Binding of Control serum LUMC to linear peptides,[3],0.8
same,Binding of Control serum LUMC to looped peptides,[3],0.4
LLEQWNLVIGFLFLA,Binding of serum 1a to linear peptides of protein M of SARS-CoV Urbani,[1],0.7
same,Binding of serum 1a to looped/cyclic peptides of protein M of SARS-CoV Urbani,[1],0.5
same,Binding of serum 1b to linear peptides of protein M of SARS-CoV Urbani,[1],0.6
same,Binding of serum 1b to looped/cyclic peptides of protein M of SARS-CoV Urbani,[1],0.2
same,Binding of serum 2 to linear peptides of protein M of SARS-CoV Urbani,[1],0.4
same,Binding of serum 2 to looped/cyclic peptides of protein M of SARS-CoV Urbani,[1],0.4
same,Binding of serum 6 to linear peptides of protein M of SARS-CoV Urbani,[1],0.2
same,Binding of serum 6 to looped/cyclic peptides of protein M of SARS-CoV Urbani,[1],0.4
same,Binding of serum 37 to linear peptides of protein M of SARS-CoV Urbani,[1],0.4
same,Binding of serum 37 to looped/cyclic peptides of protein M of SARS-CoV Urbani,[1],0.4
same,Binding of serum 62 to linear peptides of protein M of SARS-CoV Urbani,[1],0.4
same,Binding of serum 62 to looped/cyclic peptides of protein M of SARS-CoV Urbani,[1],0.4
same,Binding of serum London to linear peptides of protein M of SARS-CoV Urbani,[1],0.3
same,Binding of serum London to looped/cyclic peptides of protein M of SARS-CoV Urbani,[1],0.2
same,Binding of serum SARS-green to linear peptides of protein M of SARS-CoV Urbani,[1],0.3
same,Binding of serum SARS-green to looped/cyclic peptides of protein M of SARS-CoV Urbani,[1],0.2
same,Binding of serum SARS-yellow to linear peptides of protein M of SARS-CoV Urbani,[1],0.2
same,Binding of serum SARS-yellow to looped/cyclic peptides of protein M of SARS-CoV Urbani,[1],0.4
same,Rabbit serum linear peptides,[2],0.6
same,Rabbit serum looped peptides,[2],0.0
same,Binding of Control Serum Blood-Bank to Looped peptides of the protein M of SARS-CoV Urbani,[3],0.2
same,Binding of Control serum Blood-bank to linear peptides of the protein M of SARS-CoV Urbani,[3],0.5
same,Binding of Control serum LUMC to linear peptides of the protein M of SARS-CoV Urbani,[3],0.4
same,Binding of Control serum LUMC to looped peptides of the protein M of SARS-CoV Urbani,[3],0.5
LLFVTIYSHLLLVAA,Binding of serum 1a to linear peptides of protein X1 of SARS-CoV Urbani,[1],0.7
same,Binding of serum 1a to looped/cyclic peptide (PEPSCAN-ELISA),[1],0.4
same,Binding of serum 1b to linear peptides of protein X1 of SARS-CoV Urbani,[1],0.2
same,Binding of serum 1b to looped/cyclic peptide (PEPSCAN-ELISA),[1],0.3
same,Binding of serum 2 to linear peptides of protein X1 of SARS-CoV Urbani,[1],0.5
same,Binding of serum 2 to looped/cyclic peptide (PEPSCAN-ELISA),[1],0.3
same,Binding of serum 6 to linear peptides of protein X1 of SARS-CoV Urbani,[1],0.4
same,Binding of serum 6 to looped/cyclic peptide (PEPSCAN-ELISA),[1],0.2
same,Binding of serum 37 to linear peptides of protein X1 of SARS-CoV Urbani,[1],0.6
same,Binding of serum 37 to looped/cyclic peptide (PEPSCAN-ELISA),[1],0.4
same,Binding of serum 62 to linear peptides of protein X1 of SARS-CoV Urbani,[1],0.5
same,Binding of serum 62 to looped/cyclic peptide (PEPSCAN-ELISA),[1],0.5
same,Binding of serum London to linear peptides of protein X1 of SARS-CoV Urbani,[1],0.2
same,Binding of serum London to looped/cyclic peptide (PEPSCAN-ELISA),[1],0.2
same,Binding of serum SARS-green to linear peptides of protein X1 of SARS-CoV Urbani,[1],0.3
same,Binding of serum SARS-green to looped/cyclic peptide (PEPSCAN-ELISA),[1],0.2
same,Binding of serum SARS-yellow to linear peptides of protein X1 of SARS-CoV Urbani,[1],0.3
same,Binding of serum SARS-yellow to looped/cyclic peptide (PEPSCAN-ELISA),[1],0.4
same,Binding of a rabbit serum to linear peptides,[2],0.1
same,Binding of a rabbit serum to looped peptides,[2],0.5
same,Binding of Control Serum Blood-Bank to Looped peptides,[3],0.4
same,Binding of Control serum Blood-bank to linear peptides,[3],0.5
same,Binding of Control serum LUMC to linear peptides,[3],0.4
same,Binding of Control serum LUMC to looped peptides,[3],0.6
LLKEPCPSGTYEGNS,Binding of serum 1a to linear peptides of protein X4 of SARS-CoV Urbani,[1],0.8
same,Binding of serum 1a to looped/cyclic peptides of protein X4 of SARS-CoV Urbani,[1],0.8
same,Binding of serum 1b to linear peptides of protein X4 of SARS-CoV Urbani,[1],0.6
same,Binding of serum 1b to looped/cyclic peptides of protein X4 of SARS-CoV Urbani,[1],0.6
same,Binding of serum 2 to linear peptides of protein X4 of SARS-CoV Urbani,[1],0.3
same,Binding of serum 2 to looped/cyclic peptides of protein X4 of SARS-CoV Urbani,[1],0.6
same,Binding of serum 6 to linear peptides of protein X4 of SARS-CoV Urbani,[1],0.6
same,Binding of serum 6 to looped/cyclic peptides of protein X4 of SARS-CoV Urbani,[1],0.7
same,Binding of serum 37 to linear peptides of protein X4 of SARS-CoV Urbani,[1],0.6
same,Binding of serum 37 to looped/cyclic peptides of protein X4 of SARS-CoV Urbani,[1],0.7
same,Binding of serum 62 to linear peptides of protein X4 of SARS-CoV Urbani,[1],0.8
same,Binding of serum 62 to looped/cyclic peptides of protein X4 of SARS-CoV Urbani,[1],0.5
same,Binding of serum London to linear peptides of protein X4 of SARS-CoV Urbani,[1],0.8
same,Binding of serum London to looped/cyclic peptides of protein X4 of SARS-CoV Urbani,[1],0.3
same,Binding of serum SARS-green to linear peptides of protein X4 of SARS-CoV Urbani,[1],0.5
same,Binding of serum SARS-green to looped/cyclic peptides of protein X4 of SARS-CoV Urbani,[1],0.7
same,Binding of serum SARS-yellow to linear peptides of protein X4 of SARS-CoV Urbani,[1],0.2
same,Binding of serum SARS-yellow to looped/cyclic peptides of protein X4 of SARS-CoV Urbani,[1],0.2
same,Rabbit serum linear peptides,[2],0.3
same,Rabbit serum looped peptides,[2],0.1
same,Binding of Control Serum Blood-Bank to Looped peptides,[3],0.6
same,Binding of Control serum Blood-bank to linear peptides,[3],0.6
same,Binding of Control serum LUMC to linear peptides,[3],0.6
same,Binding of Control serum LUMC to looped peptides,[3],0.8
LLNVPLRGTIVTRPL,Binding of serum 1a to linear peptides of protein M of SARS-CoV Urbani,[1],0.8
same,Binding of serum 1b to linear peptides of protein M of SARS-CoV Urbani,[1],0.5
same,Binding of serum 2 to linear peptides of protein M of SARS-CoV Urbani,[1],0.5
same,Binding of serum 6 to linear peptides of protein M of SARS-CoV Urbani,[1],0.5
same,Binding of serum 37 to linear peptides of protein M of SARS-CoV Urbani,[1],0.6
same,Binding of serum 62 to linear peptides of protein M of SARS-CoV Urbani,[1],0.7
same,Binding of serum London to linear peptides of protein M of SARS-CoV Urbani,[1],0.4
same,Binding of serum SARS-green to linear peptides of protein M of SARS-CoV Urbani,[1],0.3
same,Binding of serum SARS-yellow to linear peptides of protein M of SARS-CoV Urbani,[1],0.1
same,"Recognition of the peptide by sera of SARS-CoV infected individuals, and form (linear, looped/cyclic) in which it is recognized",[1],recognized in looped/cyclic form
same,Rabbit serum linear peptides,[2],0.4
same,Rabbit serum looped peptides,[2],0.0
same,Binding of Control Serum Blood-Bank to Looped peptides of the protein M of SARS-CoV Urbani,[3],0.9
same,Binding of Control serum Blood-bank to linear peptides of the protein M of SARS-CoV Urbani,[3],0.7
same,Binding of Control serum LUMC to linear peptides of the protein M of SARS-CoV Urbani,[3],0.4
same,Binding of Control serum LUMC to looped peptides of the protein M of SARS-CoV Urbani,[3],0.5
